Results reported in patent publication US11179377B2, “Pharmaceutical compositions and uses thereof” (Embera NeuroTherapeutics, Inc., priority 2017, dated 2021).

What was measured:
Type in all cases: physicochemical
[1] = Metyrapone Assay and Related Substances after 4 Weeks of Storage (HPLC Test Method B); settings: for Assay at 1 mo (metyrapone) / Total imps at 1 mo: metyrapone method (Test Method B)
Experimental: (§1) Binary mixtures of the drug substances were prepared, stressed at 40° C./75% RH for 4 weeks and evaluated by the assay and related substances method using both analytical methods. Prototype blends containing oxazepam and metyrapone were prepared that would represent potential approaches for a single unit combination tablet with (i) one prototype using dry granulation and (ii) one prototype using wet granulation. The blends were stressed at 25° C./60% RH and at 40° C./75% RH for 4 weeks and evaluated.
Accurately weigh samples into a 500 mL volumetric flask. Add approximately 1 to 2 mL of water to disintegrate. Add sample diluent, sonicate for 15 minutes, shake for 15 minutes, and then bring to volume with sample diluent and mix well. Filter this solution and dilute to an appropriate sample concentration with sample diluent, and analyze by HPLC using the chromatographic conditions below.
(§2) The compatibility between the two compounds was evaluated as (i) neat API mixtures (1:15 and 1:30 ratios of oxazepam:metyrapone) and (ii) in prototype matrices that are representative of final forms if a simple combination tablet were to be manufactured (see Table 16). These prototypes have metyrapone and oxazepam ratios representative of a 720 mg metyrapone/24 mg oxazepam dose.
(§3) One prototype was prepared using a dry granulation process while the other was prepared using a wet granulation process. In both prototypes, metyrapone was formulated intragranularly while oxazepam included extragranularly. The excipients used in each case were similar to those used on oxazepam and metyrapone minitabs formulations. The dry granulation process was facilitated through roller compaction of the intragranular components.
(§4) Samples of API mixtures and prototype tablets (created from slugs compressed on a Carver press) were stored at 25° C./60% RH and at 40° C./75% RH in glass vials with screw caps. Samples were removed from storage after 4 weeks and analyzed for metyrapone, oxazepam and related substances using both HPLS analytical methods (Test methods A and B). Different dilutions were required to appropriately analyze for metyrapone and oxazepam from the mixtures due to the large amount of metyrapone relative to oxazepam.
(§5) The compatibility of metyrapone and oxazepam was evaluated by comparing potency and impurity profiles of the following samples: • 1. Neat oxazepam API stored for 4 weeks at 25° C./60% RH and 40° C./75% RH. • 2. Neat metyrapone API stored for 4 weeks at 25° C./60% RH and 40° C./75% RH. • 3. Binary mixtures of oxazepam and metyrapone APIs at 1:15 and 1:30 ratios stored for 4 weeks at 25° C./60% RH and 40° C./75% RH. • 4. Prototype blend prepared using the wet granulation approach (metyrapone—intragranular; oxazepam—extragranular) stored for 4 weeks at 25° C./60% RH and 40° C./75% RH. • 5. Prototype blend prepared using the dry granulation approach (roller compacted metyrapone—intragranular; oxazepam—extragranular) stored for 4 weeks at 25° C./60% RH and 40° C./75% RH.
(§6) For each active pharmaceutical component, the potency and impurity values of neat API were compared with those for the binary mixtures and prototypes. Since the methods are unable to distinguish impurities from the two actives, compatibility was assessed by the increase in total impurities and decrease in potency values of the actives. The results are shown in Table 17 for oxazepam and Table 18 for metyrapone. The % peak areas for API admixtures and prototypes are proportional to the ratio of the two actives in the corresponding samples.

[2] = Metyrapone-Oxazepam Compatibility Study, overall conclusions
Experimental: A study was conducted to assess the compatibility between oxazepam and metyrapone in a single pharmaceutical composition (e.g., single tablet unit containing both compounds).
as §1
The compatibility between the two compounds was evaluated as (i) neat API mixtures (1:15 and 1:30 ratios of oxazepam:metyrapone) and (ii) in prototype matrices that are representative of final forms if a simple combination tablet were to be manufactured (see Table 16). […]
as §4, with “Different dilutions were required to appropriately analyze for metyrapone and oxazepam from the mixtures due to the large amount of metyrapone relative to oxazepam.” left out

[3] = Oxazepam Assay and Related Substances after 4 Weeks of Storage (HPLC Test Method A); settings: for Assay at 1 mo (oxazepam) / Total imps at 1 mo: oxazepam method (Test Method A)
Experimental: as §1
Accurately weigh samples into a volumetric flask. Add approximately 2 mL of water to disintegrate the samples. Add sample diluent, sonicate for 15 minutes, shake for 15 minutes, and then bring to volume with sample diluent and mix well. Filter the solution, dilute as needed with the sample diluent for analysis, and analyze by HPLC using the chromatographic conditions below.
as §2, §3, §4, §5, §6

[4] = 25 C. (25° C./60% RH), 4 weeks storage, Test Method B
[5] = 40 C. (40° C./75% RH), 4 weeks storage, Test Method B
[6] = 25 C. (25° C./60% RH), 4 weeks storage, Test Method A
[7] = 40 C. (40° C./75% RH), 4 weeks storage, Test Method A

**Q.** With `CC(C)(C(=O)c1cccnc1)c1cccnc1` [metyrapone neat, metyrapone] as the compound, how does the “% Peak area, RRT 0.27” value [1, 4] read?
**A.** 0.14 % Peak area

**Q.** And the “% Peak area, RRT 0.48” value [1, 4]?
**A.** 0.05 % Peak area

**Q.** What about the “% Peak area, RRT 0.67” value [1, 4] of the same compound?
**A.** 0.01 % Peak area

**Q.** And the “% Peak area, RRT 1.00 * (Metyrapone)” value [1, 4]?
**A.** 99.44 % Peak area

**Q.** And the “% Peak area, RRT 1.09” value [1, 4]?
**A.** 0.07 % Peak area

**Q.** And the “Assay at 1 mo (metyrapone)” value ([1]; 25 C. (25° C./60% RH))?
**A.** 100.60%

**Q.** And the “Total imps at 1 mo” value ([1]; 25 C. (25° C./60% RH))?
**A.** 0.26%

**Q.** What about the “% Peak area, RRT 0.27” value [1, 5] of the same compound?
**A.** 0.15 % Peak area

**Q.** And the “% Peak area, RRT 0.48” value [1, 5]?
**A.** 0.06 % Peak area

**Q.** And the “% Peak area, RRT 1.00 * (Metyrapone)” value [1, 5]?
**A.** 99.42 % Peak area

**Q.** And the “% Peak area, RRT 1.09” value [1, 5]?
**A.** 0.09 % Peak area

**Q.** And the “Assay at 1 mo (metyrapone)” value ([1]; 40 C. (40° C./75% RH))?
**A.** 99.50%

**Q.** What about the “Total imps at 1 mo” value ([1]; 40 C. (40° C./75% RH)) of the same compound?
**A.** 0.30%

**Q.** And the “impact of the incompatibility on metyrapone” value ([2]; 4 weeks storage combined with oxazepam)?
**A.** minimal

**Q.** What does the source list for `O=C1Nc2ccc(Cl)cc2C(c2ccccc2)=NC1O` (centres unmarked) [oxazepam neat API, oxazepam]?
**A.** % Peak area, RRT 1.00 ** (Oxazepam) [3, 6]: 99.45 % Peak area; % Peak area, RRT 1.28 [3, 6]: 0.25 % Peak area; % Peak area, RRT 1.333 [3, 6]: 0.16 % Peak area; Assay at 1 mo (oxazepam) ([3]; 25 C. (25° C./60% RH)): 95.00%; Total imps at 1 mo ([3]; 25 C. (25° C./60% RH)): 0.41%; % Peak area, RRT 1.00 ** (Oxazepam) [3, 7]: 99.67 % Peak area; % Peak area, RRT 1.28 [3, 7]: 0.15 % Peak area; % Peak area, RRT 1.329 [3, 7]: 0.05 % Peak area; % Peak area, RRT 1.333 [3, 7]: 0.08 % Peak area; Assay at 1 mo (oxazepam) ([3]; 40 C. (40° C./75% RH)): 93.20%; Total imps at 1 mo ([3]; 40 C. (40° C./75% RH)): 0.28%; oxazepam degradation ([2]; in 4 weeks at 40° C./75% RH, combined with metyrapone (admixtures and prototypes)): up to 50%
